We go through 5 molecules from ChEMBL document CHEMBL2073844, “Pharmacological characterization of the murine and human orthologs of multidrug-resistance protein in transfected human embryonic kidney cells” (Mol Pharmacol, 1997).

What all share (format): functional, cell-based
The target in series [1] is T1, Multidrug resistance-associated protein 1 (Homo sapiens, UniProt P33527). Briefly: TP_TRANSPORTER: drug resistance in MRP1-expressing HEK293 cells.
Series [2] has as its target T2, Multidrug resistance-associated protein 1 (Mus musculus, UniProt O35379). Briefly: TP_TRANSPORTER: drug resistance in Mrp1-expressing HEK293 cells. To be noted: human.
Series [3] has as its target T2, Multidrug resistance-associated protein 1. As to the kind of experiment: TP_TRANSPORTER: efflux in Mrp1-expressing HEK293 cells. The note with it: human.
The target in series [4] is T1, Multidrug resistance-associated protein 1. Briefly: TP_TRANSPORTER: efflux in MRP1-expressing HEK293 cells.

Entries after “also recorded” stand apart in the source; their conditions may differ.

T1 sequence (P33527 whole entry): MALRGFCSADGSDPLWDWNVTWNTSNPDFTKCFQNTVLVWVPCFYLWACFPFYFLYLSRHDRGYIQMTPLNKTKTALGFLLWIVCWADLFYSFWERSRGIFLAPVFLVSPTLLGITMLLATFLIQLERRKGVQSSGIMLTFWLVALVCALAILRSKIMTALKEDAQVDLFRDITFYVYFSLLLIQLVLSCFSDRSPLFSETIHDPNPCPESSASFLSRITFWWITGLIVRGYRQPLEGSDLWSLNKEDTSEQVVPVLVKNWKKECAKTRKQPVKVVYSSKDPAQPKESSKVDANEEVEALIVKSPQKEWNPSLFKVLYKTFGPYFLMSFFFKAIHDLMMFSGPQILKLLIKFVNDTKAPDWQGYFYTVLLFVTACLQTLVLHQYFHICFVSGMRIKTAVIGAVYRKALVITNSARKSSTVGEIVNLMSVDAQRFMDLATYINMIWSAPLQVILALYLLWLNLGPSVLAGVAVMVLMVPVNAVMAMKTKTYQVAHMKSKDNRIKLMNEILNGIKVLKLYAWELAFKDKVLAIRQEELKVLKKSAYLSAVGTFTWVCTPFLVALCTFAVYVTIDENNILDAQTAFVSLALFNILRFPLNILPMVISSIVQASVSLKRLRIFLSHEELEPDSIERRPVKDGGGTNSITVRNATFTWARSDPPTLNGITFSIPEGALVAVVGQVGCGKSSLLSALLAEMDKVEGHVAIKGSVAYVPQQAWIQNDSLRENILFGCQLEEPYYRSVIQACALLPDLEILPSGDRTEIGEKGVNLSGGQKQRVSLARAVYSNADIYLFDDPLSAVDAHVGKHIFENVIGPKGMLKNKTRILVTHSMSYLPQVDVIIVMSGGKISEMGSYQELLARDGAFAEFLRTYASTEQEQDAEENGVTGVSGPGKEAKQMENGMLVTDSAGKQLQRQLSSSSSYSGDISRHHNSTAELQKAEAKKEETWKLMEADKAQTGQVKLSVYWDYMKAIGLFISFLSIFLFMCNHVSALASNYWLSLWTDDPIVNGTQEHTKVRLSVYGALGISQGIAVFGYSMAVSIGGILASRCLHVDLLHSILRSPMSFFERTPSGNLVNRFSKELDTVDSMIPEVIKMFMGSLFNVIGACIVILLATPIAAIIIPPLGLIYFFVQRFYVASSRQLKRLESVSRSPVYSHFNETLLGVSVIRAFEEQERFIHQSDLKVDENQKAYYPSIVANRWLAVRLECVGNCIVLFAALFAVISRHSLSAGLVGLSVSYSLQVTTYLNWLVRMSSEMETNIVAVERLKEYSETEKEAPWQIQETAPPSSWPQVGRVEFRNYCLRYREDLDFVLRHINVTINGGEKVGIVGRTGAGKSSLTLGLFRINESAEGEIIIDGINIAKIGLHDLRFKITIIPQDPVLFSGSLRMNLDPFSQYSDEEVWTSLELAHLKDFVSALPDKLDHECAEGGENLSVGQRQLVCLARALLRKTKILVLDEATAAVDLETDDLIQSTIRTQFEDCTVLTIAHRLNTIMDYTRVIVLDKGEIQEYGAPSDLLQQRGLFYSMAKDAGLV
T2 sequence (O35379 whole entry): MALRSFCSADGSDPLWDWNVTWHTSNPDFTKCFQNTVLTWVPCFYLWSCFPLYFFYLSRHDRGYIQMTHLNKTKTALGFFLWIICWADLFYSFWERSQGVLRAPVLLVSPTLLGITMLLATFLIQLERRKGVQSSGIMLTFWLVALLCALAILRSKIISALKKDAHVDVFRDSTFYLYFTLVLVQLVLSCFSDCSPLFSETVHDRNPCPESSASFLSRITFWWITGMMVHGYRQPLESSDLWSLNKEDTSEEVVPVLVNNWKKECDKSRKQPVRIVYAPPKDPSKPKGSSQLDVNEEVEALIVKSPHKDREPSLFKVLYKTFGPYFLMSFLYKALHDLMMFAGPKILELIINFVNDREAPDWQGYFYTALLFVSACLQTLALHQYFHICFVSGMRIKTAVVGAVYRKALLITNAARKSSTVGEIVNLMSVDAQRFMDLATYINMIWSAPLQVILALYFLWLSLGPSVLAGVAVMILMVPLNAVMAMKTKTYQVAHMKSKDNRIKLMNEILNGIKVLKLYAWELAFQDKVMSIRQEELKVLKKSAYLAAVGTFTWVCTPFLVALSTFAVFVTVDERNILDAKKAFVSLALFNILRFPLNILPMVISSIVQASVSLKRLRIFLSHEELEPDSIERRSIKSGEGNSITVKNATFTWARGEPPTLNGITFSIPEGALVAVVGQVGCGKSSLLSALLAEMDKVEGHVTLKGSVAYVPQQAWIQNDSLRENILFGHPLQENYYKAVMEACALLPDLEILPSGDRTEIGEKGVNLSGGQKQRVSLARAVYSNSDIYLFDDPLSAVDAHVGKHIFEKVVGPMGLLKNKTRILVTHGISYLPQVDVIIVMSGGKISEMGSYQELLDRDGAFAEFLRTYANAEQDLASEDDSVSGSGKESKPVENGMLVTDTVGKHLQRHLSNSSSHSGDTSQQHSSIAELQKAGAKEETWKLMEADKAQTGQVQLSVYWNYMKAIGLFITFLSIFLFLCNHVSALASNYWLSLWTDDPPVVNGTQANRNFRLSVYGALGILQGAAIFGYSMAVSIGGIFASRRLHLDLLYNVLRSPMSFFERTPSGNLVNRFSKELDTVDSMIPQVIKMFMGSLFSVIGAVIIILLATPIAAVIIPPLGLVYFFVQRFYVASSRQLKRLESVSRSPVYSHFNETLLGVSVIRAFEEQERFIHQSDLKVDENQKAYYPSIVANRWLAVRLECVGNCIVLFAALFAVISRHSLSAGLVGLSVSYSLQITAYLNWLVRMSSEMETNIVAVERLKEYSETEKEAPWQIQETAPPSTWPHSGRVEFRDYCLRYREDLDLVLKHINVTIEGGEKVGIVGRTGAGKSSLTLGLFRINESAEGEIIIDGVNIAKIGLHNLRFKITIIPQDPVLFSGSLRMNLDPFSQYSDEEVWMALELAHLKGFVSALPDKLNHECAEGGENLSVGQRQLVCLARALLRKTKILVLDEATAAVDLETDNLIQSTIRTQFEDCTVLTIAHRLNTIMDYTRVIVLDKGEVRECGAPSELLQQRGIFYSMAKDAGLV

As for `COc1cccc2c1C(=O)c1c(O)c3c(c(O)c1C2=O)C[C@@](O)(C(=O)CO)C[C@@H]3O[C@H]1C[C@H](N)[C@H](O)[C@H](C)O1` [DOXORUBICIN], the Activity entry was “substrate [+]” in series [1] and “is not a substrate [-]” in series [2].

As for `COc1cc2c(c(OC)c1OC)-c1ccc(OC)c(=O)cc1[C@@H](NC(C)=O)CC2` [COLCHICINE], the Activity result in series [2] is “substrate [+]; also recorded: is not a substrate [-]”.

Consider `CC[C@]1(O)C[C@H]2CN(CCc3c([nH]c4ccccc34)[C@@](C(=O)OC)(c3cc4c(cc3OC)N(C=O)[C@H]3[C@@](O)(C(=O)OC)[C@H](OC(C)=O)[C@]5(CC)C=CCN6CC[C@]43[C@@H]65)C2)C1` [VINCRISTINE], for which the Activity result in series [3] was “substrate [+]”.

Consider `COc1cccc2c1C(=O)c1c(O)c3c(c(O)c1C2=O)C[C@@](O)(C(=O)CO)C[C@@H]3O[C@H]1C[C@H](N)[C@@H](O)[C@H](C)O1` [EPIRUBICIN], for which the figures for the Activity result in series [1] and in series [2] were “substrate [+]” and “is not a substrate [-]”, respectively.

For `COc1cc([C@@H]2c3cc4c(cc3[C@@H](O[C@@H]3O[C@@H]5CO[C@@H](C)O[C@H]5[C@H](O)[C@H]3O)[C@H]3COC(=O)[C@H]23)OCO4)cc(OC)c1O` [ETOPOSIDE], the Activity result in series [4] and in series [3] was “substrate [+]” in each case.
